This passage reports MIC and EC50 results from patent US12173018B2, “Penicillin-binding protein inhibitors” (priority 2018, dated 2024).

The structures appear in SMILES notation.

The test system of one experiment is P. aeruginosa PAO1. The experiment is described as follows: Broth microdilution MIC, P. aeruginosa PAO1. The format is cell-based. The following applies: Pseudomonas aeruginosa; P. aeruginosa PAO1, broth microdilution; read-out: MIC P. aeruginosa PAO1. An outline of the steps: (§1)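 Colonies from Mueller Hinton II agar were grown 3-5 hours at 37° C in cation-supplemented broth, adjusted by OD600, then added to 2-fold compound dilutions at 5×10^5 CFU/mL. After 16-20 hours at 37° C, MICs were scored visually.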

A further experiment deals with P. aeruginosa ATCC 35151. The experiment in a line: microbe, parasite or virus in culture. The following applies: Pseudomonas aeruginosa, ATCC35151; hyper-permeable P. aeruginosa ATCC 35151; read-out: MIC P. aeruginosa ATCC 35151. In kind it is cell-based. An outline of the steps:
as §1

Experiment [1] deals with P. aeruginosa (ΔmexAB-oprM). The experiment in a line: microbe, parasite or virus in culture. The format is cell-based. The note with it: Pseudomonas aeruginosa, read-out: MIC P. aeruginosa ΔmexAB-OprM. An outline of the steps: as §1
A further experiment deals with A. baumannii ATCC 19606. The experiment is described as follows: Broth microdilution MIC, A. baumannii ATCC 19606. In kind it is cell-based. The following applies: Acinetobacter baumannii, ATCC19606; A. baumannii ATCC 19606, broth microdilution; read-out: MIC A. baumannii ATCC 19606. An outline of the steps:
as §1

The test system of a further experiment is N. gonorrhoeae FA1090. The experiment in a line: Liquid broth MIC, N. gonorrhoeae FA1090. The format is cell-based. The following applies: Neisseria gonorrhoeae; N. gonorrhoeae FA1090, liquid broth; read-out: Minimum Inhibitory Concentration, N. gonorrhoeae FA1090. An outline of the steps: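 Broth microdilution, 2-fold compound series; start inoculum 5×10^5 CFU/mL (OD600-adjusted, GC broth pH 7.2, Kellogg's suppl.). 40-42 h, 36° C, 5% CO2. MIC = lowest conc., no visible growth.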

In the next experiment the target is E. coli PBP3 (Escherichia coli (strain K12), UniProt P0AD68). The experiment is described as follows: E. coli PBP3 Bocillin-FL fluorescence polarization competition binding assay. The following applies: fluorescence polarization competition binding with Bocillin-FL; read-out: E. coli K12 PBP3 Potency. An outline of the steps:
(§2)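 FP competition: 1.5 μM PBP, 0.1 μM Bocillin-FL, cpd 0–1000 μM; 50 mM Hepes pH 8.0/300 mM NaCl/5% glycerol. Read 490/520 nm immediately after Bocillin-FL addition, 60 min. EC50 = cpd conc. lowering probe binding.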

The next experiment concerns the target E. coli PBP4 (Escherichia coli (strain K12), UniProt P24228). The experiment is described as follows: E. coli PBP4 Bocillin-FL fluorescence polarization competition binding assay. The following applies: fluorescence polarization competition binding with Bocillin-FL; read-out: E. coli K12 PBP4 Potency (EC50). An outline of the steps:
as §2

Chain of E. coli PBP3 (P0AD68 whole entry): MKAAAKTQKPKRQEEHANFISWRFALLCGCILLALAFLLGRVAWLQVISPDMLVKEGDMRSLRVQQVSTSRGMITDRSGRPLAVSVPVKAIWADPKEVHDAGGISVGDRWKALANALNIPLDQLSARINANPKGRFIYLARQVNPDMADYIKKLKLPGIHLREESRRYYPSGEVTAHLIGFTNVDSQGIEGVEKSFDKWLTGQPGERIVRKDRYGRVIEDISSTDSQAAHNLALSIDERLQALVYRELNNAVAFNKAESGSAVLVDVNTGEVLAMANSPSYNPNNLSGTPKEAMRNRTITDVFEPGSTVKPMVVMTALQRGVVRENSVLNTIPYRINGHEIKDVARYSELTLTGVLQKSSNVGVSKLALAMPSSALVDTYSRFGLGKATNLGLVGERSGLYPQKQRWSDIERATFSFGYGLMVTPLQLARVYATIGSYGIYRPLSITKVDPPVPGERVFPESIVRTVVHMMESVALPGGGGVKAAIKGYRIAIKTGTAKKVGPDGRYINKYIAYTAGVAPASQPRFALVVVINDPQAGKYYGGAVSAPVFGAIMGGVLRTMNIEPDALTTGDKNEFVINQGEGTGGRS
Chain of E. coli PBP4 (P24228 21-477): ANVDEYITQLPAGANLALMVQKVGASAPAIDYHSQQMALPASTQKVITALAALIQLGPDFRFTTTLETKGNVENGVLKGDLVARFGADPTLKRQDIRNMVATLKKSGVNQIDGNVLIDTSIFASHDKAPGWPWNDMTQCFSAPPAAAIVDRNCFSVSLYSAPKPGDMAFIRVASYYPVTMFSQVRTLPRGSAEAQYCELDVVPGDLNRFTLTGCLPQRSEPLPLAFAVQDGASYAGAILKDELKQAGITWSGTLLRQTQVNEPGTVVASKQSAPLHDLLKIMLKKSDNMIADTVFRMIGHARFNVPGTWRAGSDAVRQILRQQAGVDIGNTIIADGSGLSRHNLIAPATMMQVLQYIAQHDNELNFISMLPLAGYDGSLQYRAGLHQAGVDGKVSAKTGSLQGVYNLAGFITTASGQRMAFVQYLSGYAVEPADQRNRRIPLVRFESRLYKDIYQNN

Take `CCN1CCN(C(=O)NC(C(=O)N[C@H]2Cc3ccc(F)c(C(=O)O)c3OB2O)c2ncc(O)cc2F)C(=O)C1=O` (stereo partly drawn) [Example 145, (3R)-3-(2-(4-ethyl-2,3-dioxopiperazine-1-carboxamido)-2-(3-fluoro-5-hydroxypyridin-2-yl)acetamido)-7-fluoro-2-hydroxy-3,4-dihydro-2H-benzo[e][1,2]oxaborinine-8-carboxylic acid]: the MIC in the experiment on P. aeruginosa PAO1 is more than 128 µg/mL; in the experiment with P. aeruginosa ATCC 35151 it was 8 to 16 µg/mL; in experiment [1], 8 to 16 µg/mL; in the experiment with A. baumannii ATCC 19606 it was more than 128 µg/mL; in the experiment with N. gonorrhoeae FA1090, less than 0.125 µg/mL. For the same compound, the EC50 was less than 30 µM at E. coli PBP3 and more than 500 µM on E. coli PBP4.
